We go through eleven molecules from PubChem BioAssay (NCI).

Molecules are shown by their SMILES.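 All cell lines were grown in 96-well plates and treated with compound for 48 hours. At the GI50, growth is halved. The concentration for full growth arrest is given as TGI.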 A value given as a limit tells only on which side of the number the result lay.

Some test systems named below: 786-0 renal; COLO 205 colon; HCT-116 colon; IGROV1 ovarian; K-562 leukemia; PC-3 prostate; SK-MEL-2 melanoma; SR leukemia; U251 CNS; CCRF-CEM leukemia.
Common to all, as to test: NCI-60 cell line screen, 48 h

Regarding `COc1cc(C2SCC(=O)N2c2ncc(C)s2)cc(OC)c1OC` (stereo unspecified), the GI50 with 786-0 renal is over 50 µM; with COLO 205 colon it was 17.5 µM; with HCT-116 colon it was 27.5 µM; with IGROV1 ovarian it was over 50 µM; with K-562 leukemia, 23.5 µM; in the experiment with PC-3 prostate, 31.4 µM. The GI50 in the experiment with SK-MEL-2 melanoma is over 50 µM; in the experiment on SR leukemia, 3.06 µM; in the experiment with U251 CNS it was 18.1 µM. Moreover, the TGI in the experiment on 786-0 renal, in the experiment on COLO 205 colon, with HCT-116 colon, in the experiment on IGROV1 ovarian, with K-562 leukemia and in the experiment with PC-3 prostate was over 50 µM in each case. Moreover, the TGI in the experiment on SK-MEL-2 melanoma, with SR leukemia and in the experiment on U251 CNS was over 50 µM each time.
On to `C#Cc1c(/C=C/C(=O)OCC)ccc2ccccc12`, for which the GI50 in the experiment with 786-0 renal was 27.5 µM; with CCRF-CEM leukemia it was 14.6 µM; with COLO 205 colon, 13.8 µM; in the experiment with HCT-116 colon, 26.2 µM; with IGROV1 ovarian, 5.77 µM; with K-562 leukemia, 6.98 µM. For the same molecule, the results for the GI50 in the experiment with PC-3 prostate, in the experiment with SR leukemia and in the experiment with U251 CNS were 18.3 µM, 3.94 µM and 11.2 µM, respectively. Besides, the TGI with 786-0 renal came to 74 µM; in the experiment with CCRF-CEM leukemia it was 30.9 µM; in the experiment on COLO 205 colon, 33.5 µM; in the experiment on HCT-116 colon, 91.6 µM; in the experiment with IGROV1 ovarian it was 26.2 µM; in the experiment with K-562 leukemia it was 41.7 µM. Moreover, the TGI with PC-3 prostate stood at 63.6 µM; in the experiment with SR leukemia it was 17 µM; with U251 CNS, 31.7 µM.
On to `O=C(Nc1ccc(Cl)c(Cl)c1)Nc1c(Oc2ccc(Cl)c(Cl)c2)ccc(Cl)c1S(=O)(=O)O`, for which the GI50 with 786-0 renal is 3.05 µM; in the experiment on CCRF-CEM leukemia it was 4.03 µM; in the experiment with COLO 205 colon it was 2.39 µM; with HCT-116 colon, 1.32 µM; with K-562 leukemia, 0.516 µM; in the experiment on PC-3 prostate, 3.59 µM. The figures for the GI50 in the experiment with SR leukemia and with U251 CNS were 0.504 µM and 3.16 µM, respectively. The TGI is 29.8 µM in the experiment on 786-0 renal; over 100 µM with CCRF-CEM leukemia; over 100 µM with COLO 205 colon; over 100 µM with HCT-116 colon; over 100 µM in the experiment on K-562 leukemia; over 100 µM in the experiment on PC-3 prostate. Also, the TGI in the experiment on SR leukemia and in the experiment with U251 CNS was over 100 µM in each case.
With `CC(C)([NH-])CO.CC(C)([NH-])CO.[Cl][Cd][Cl]`, the GI50 in the experiment on 786-0 renal is 16.6 µM; in the experiment on CCRF-CEM leukemia, 15.9 µM; in the experiment on COLO 205 colon, 26.1 µM; in the experiment on HCT-116 colon, 18.8 µM; in the experiment with IGROV1 ovarian it was 19 µM; in the experiment on K-562 leukemia, 18.7 µM. The results for the GI50 in the experiment with SK-MEL-2 melanoma, with SR leukemia and in the experiment on U251 CNS were 15.6 µM, 20 µM and 15.4 µM, respectively. Further, the TGI in the experiment on 786-0 renal was 31.3 µM; in the experiment on CCRF-CEM leukemia, 38.8 µM; with COLO 205 colon, 55.8 µM; with HCT-116 colon, 33.8 µM; in the experiment with IGROV1 ovarian it was 36.7 µM; in the experiment on K-562 leukemia it was 40 µM. For the same molecule, the TGI in the experiment with SK-MEL-2 melanoma is 29.8 µM; in the experiment on SR leukemia it was 44.5 µM; in the experiment with U251 CNS, 28.8 µM.
For `NCCOCCOCCNc1nc(-c2ccccc2)nc(N2CCN(c3ccccn3)CC2)n1`, the GI50 in the experiment with 786-0 renal is 12.6 µM; in the experiment with CCRF-CEM leukemia it was 14.3 µM; with COLO 205 colon, 6.35 µM; with HCT-116 colon, 10 µM; in the experiment on IGROV1 ovarian, 18.2 µM; in the experiment on K-562 leukemia, 7.87 µM. The values for the GI50 with PC-3 prostate, in the experiment on SR leukemia and in the experiment with U251 CNS were 15.7 µM, 1.62 µM and 12.1 µM, respectively. The TGI with 786-0 renal was 26 µM; with CCRF-CEM leukemia, 33.2 µM; in the experiment with COLO 205 colon it was 21.1 µM; in the experiment with HCT-116 colon it was 22.6 µM; in the experiment with IGROV1 ovarian, 34.4 µM; with K-562 leukemia, 22.9 µM. Moreover, the results for the TGI with PC-3 prostate, in the experiment on SR leukemia and in the experiment with U251 CNS were 30.8 µM, 4.64 µM and 26.3 µM, respectively.
In the case of `Oc1ccc2ccccc2c1N=Nc1ccsc1`, the TGI in the experiment with 786-0 renal, in the experiment with CCRF-CEM leukemia, with COLO 205 colon, in the experiment with HCT-116 colon, in the experiment with IGROV1 ovarian and with K-562 leukemia was over 100 µM in each case. For the same molecule, the TGI in the experiment with SK-MEL-2 melanoma, in the experiment on SR leukemia and with U251 CNS was over 100 µM each time.
`Cc1ccc(S(=O)(=O)NC2(C=O)CCCC3CCCCC32)cc1` (stereo unspecified): the TGI with 786-0 renal, with CCRF-CEM leukemia, with COLO 205 colon, in the experiment with HCT-116 colon, in the experiment with IGROV1 ovarian and with K-562 leukemia was over 100 µM in each case. Further, the TGI in the experiment with SK-MEL-2 melanoma, in the experiment with SR leukemia and with U251 CNS was over 100 µM throughout.
In the case of `O=C(CCN1CCN(c2ccccc2)CC1)N1CCc2c([nH]c3ccccc23)C1c1cccnc1` (stereo unspecified), the TGI is 29.5 µM in the experiment with 786-0 renal; 69.7 µM in the experiment on CCRF-CEM leukemia; 26.7 µM in the experiment with COLO 205 colon; 28.1 µM with HCT-116 colon; over 100 µM in the experiment with IGROV1 ovarian; 45 µM in the experiment with K-562 leukemia. Further, the TGI with SK-MEL-2 melanoma was 30.4 µM; in the experiment on SR leukemia, 59 µM; in the experiment with U251 CNS, 30 µM.
As to `COc1ccc2ccccc2c1C1NC(=O)c2ccccc2N1` (stereo unspecified), the TGI in the experiment with 786-0 renal was over 38 µM; in the experiment with CCRF-CEM leukemia it was over 28.3 µM; in the experiment on HCT-116 colon, 13.8 µM; in the experiment with IGROV1 ovarian it was over 100 µM; in the experiment on PC-3 prostate, 3.19 µM; with SK-MEL-2 melanoma, over 100 µM. The TGI came out at 1.67 µM in the experiment with SR leukemia and 8.78 µM in the experiment with U251 CNS.
Consider `COC(=O)c1cccn1C(=O)n1cccc1`, for which the TGI in the experiment with 786-0 renal, in the experiment with CCRF-CEM leukemia, in the experiment on COLO 205 colon, in the experiment on HCT-116 colon, in the experiment on IGROV1 ovarian and with K-562 leukemia was over 100 µM in each case. The TGI with SK-MEL-2 melanoma, in the experiment on SR leukemia and in the experiment on U251 CNS was over 100 µM in each case.
With `O=c1[nH]c(=S)[nH]c2c1CN(CCCN1CCOCC1)CN2`, the TGI with 786-0 renal was over 100 µM; in the experiment with COLO 205 colon, 38.6 µM; in the experiment on HCT-116 colon it was over 100 µM; with IGROV1 ovarian it was over 100 µM; with K-562 leukemia it was over 100 µM; in the experiment on PC-3 prostate it was 57.1 µM. The values for the TGI with SK-MEL-2 melanoma, in the experiment on SR leukemia and in the experiment on U251 CNS were 39.8 µM, over 100 µM and over 100 µM, respectively.
